Measurements reported in patent US6358885B1, “Substituted phenylheterocyclic herbicides” (Mississippi State University, priority 1992, dated 2002).

Experiments:
Assay in all cases: Test B preemergence/postemergence greenhouse plant response rating 0 to 10
sugar beet = type: in vivo, Beta vulgaris; details: for Plant response rating, Sugar beet: 0 to 10 scale
In short: (§1)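 Planted seeds are treated preemergence with compound dissolved in a non-phytotoxic solvent, while postemergence applications go onto plants of two to eighteen cm. Plants stay in the greenhouse twelve to sixteen days and are then rated visually relative to controls.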

corn = type: in vivo, Zea mays; details: for Plant response rating, Corn: 0 to 10 scale
In short: as §1

cheatgrass = type: in vivo, Bromus secalinus; details: for Plant response rating, Cheatgrass: 0 to 10 scale
In short: as §1

barnyardgrass = type: in vivo, Echinochloa crus-galli; details: for Plant response rating, Barnyardgrass: 0 to 10 scale
In short: as §1

morningglory = type: in vivo, Ipomoea hederacea; details: for Plant response rating, Morningglory: 0 to 10 scale
In short: as §1

barley = type: in vivo, Hordeum vulgare; details: for Plant response rating, Barley: 0 to 10 scale
In short: as §1

rape = type: in vivo, Brassica napus; details: for Plant response rating, Rape: 0 to 10 scale
In short: as §1

blackgrass = type: in vivo, Alopecurus myosuroides; details: for Plant response rating, Blackgrass: 0 to 10 scale
In short: as §1

sorghum = type: in vivo, Sorghum bicolor; details: for Plant response rating, Sorghum: 0 to 10 scale
In short: as §1

rice = type: in vivo, Oryza sativa; details: for Plant response rating, Rice: 0 to 10 scale
In short: as §1

velvetleaf = type: in vivo, Abutilon theophrasti; details: for Plant response rating, Velvetleaf: 0 to 10 scale
In short: as §1

wild oat = type: in vivo, Avena fatua; details: for Plant response rating, Wild oat: 0 to 10 scale
In short: as §1

lambsquarters = type: in vivo, Chenopodium album; details: for Plant response rating, Lambsquarter: 0 to 10 scale
In short: as §1

purple nutsedge = type: in vivo, Cyperus rotundus; details: for Plant response rating, Nutsedge: 0 to 10 scale
In short: as §1

chickweed = type: in vivo, Stellaria media; details: for Plant response rating, Chickweed: 0 to 10 scale
In short: as §1

cotton = type: in vivo, Gossypium hirsutum; details: for Plant response rating, Cotton: 0 to 10 scale
In short: as §1

bedstraw = type: in vivo, Galium aparine; details: for Plant response rating, Bedstraw: 0 to 10 scale
In short: as §1

soybean = type: in vivo, Glycine max; details: for Plant response rating, Soybean: 0 to 10 scale
In short: as §1

giant foxtail = type: in vivo, Setaria faberii; details: for Plant response rating, Giant foxtail: 0 to 10 scale
In short: as §1

wheat = type: in vivo, Triticum aestivum; details: for Plant response rating, Wheat: 0 to 10 scale
In short: as §1

wild buckwheat = type: in vivo, Polygonum convolvulus; details: for Plant response rating, Wild buckwheat: 0 to 10 scale
In short: as §1

cocklebur = type: in vivo, Xanthium pensylvanicum; details: for Plant response rating, Cocklebur: 0 to 10 scale
In short: as §1

crabgrass = type: in vivo, Digitaria spp.; details: for Plant response rating, Crabgrass: 0 to 10 scale
In short: as §1

COCOc1cc(-c2nn3c(c2Br)CCCC3)c(F)cc1Cl [Compound 65]
Plant response rating, Sugar beet (sugar beet; POSTEMERGENCE, Rate 50 g/ha): 10
Plant response rating, Sugar beet (sugar beet; PREEMERGENCE, Rate 50 g/ha): 9
Plant response rating (0 to 10 scale), Sugar beet (sugar beet; PREEMERGENCE, Rate 200 g/ha): 10
Plant response rating, Sugar beet (sugar beet; Rate 200 g/ha, POSTEMERGENCE): 10
Plant response rating, Corn (corn; POSTEMERGENCE, Rate 50 g/ha): 4
Plant response rating, Corn (corn; PREEMERGENCE, Rate 50 g/ha): 0
Plant response rating (0 to 10 scale), Corn (corn; PREEMERGENCE, Rate 200 g/ha): 4
Plant response rating, Corn (corn; Rate 200 g/ha, POSTEMERGENCE): 5
Plant response rating, Cheatgrass (cheatgrass; POSTEMERGENCE, Rate 50 g/ha): 3
Plant response rating, Cheatgrass (cheatgrass; PREEMERGENCE, Rate 50 g/ha): 2
Plant response rating (0 to 10 scale), Cheatgrass (cheatgrass; PREEMERGENCE, Rate 200 g/ha): 4
Plant response rating, Cheatgrass (cheatgrass; Rate 200 g/ha, POSTEMERGENCE): 6
Plant response rating, Barnyardgrass (barnyardgrass; POSTEMERGENCE, Rate 50 g/ha): 7
Plant response rating, Barnyardgrass (barnyardgrass; PREEMERGENCE, Rate 50 g/ha): 4
Plant response rating (0 to 10 scale), Barnyardgrass (barnyardgrass; PREEMERGENCE, Rate 200 g/ha): 9
Plant response rating, Barnyardgrass (barnyardgrass; Rate 200 g/ha, POSTEMERGENCE): 9
Plant response rating, Morningglory (morningglory; POSTEMERGENCE, Rate 50 g/ha): 10
Plant response rating, Morningglory (morningglory; PREEMERGENCE, Rate 50 g/ha): 0
Plant response rating (0 to 10 scale), Morningglory (morningglory; PREEMERGENCE, Rate 200 g/ha): 2
Plant response rating, Morningglory (morningglory; Rate 200 g/ha, POSTEMERGENCE): 10
Plant response rating, Barley (barley; POSTEMERGENCE, Rate 50 g/ha): 3
Plant response rating, Barley (barley; PREEMERGENCE, Rate 50 g/ha): 0
Plant response rating (0 to 10 scale), Barley (barley; PREEMERGENCE, Rate 200 g/ha): 2
Plant response rating, Barley (barley; Rate 200 g/ha, POSTEMERGENCE): 6
Plant response rating, Rape (rape; POSTEMERGENCE, Rate 50 g/ha): 8
Plant response rating, Rape (rape; PREEMERGENCE, Rate 50 g/ha): 0
Plant response rating (0 to 10 scale), Rape (rape; PREEMERGENCE, Rate 200 g/ha): 10
Plant response rating, Rape (rape; Rate 200 g/ha, POSTEMERGENCE): 9
Plant response rating, Blackgrass (blackgrass; POSTEMERGENCE, Rate 50 g/ha): 7
Plant response rating, Blackgrass (blackgrass; PREEMERGENCE, Rate 50 g/ha): 7
Plant response rating (0 to 10 scale), Blackgrass (blackgrass; PREEMERGENCE, Rate 200 g/ha): 7
Plant response rating, Blackgrass (blackgrass; Rate 200 g/ha, POSTEMERGENCE): 7
Plant response rating, Sorghum (sorghum; POSTEMERGENCE, Rate 50 g/ha): 6
Plant response rating, Sorghum (sorghum; PREEMERGENCE, Rate 50 g/ha): 0
Plant response rating (0 to 10 scale), Sorghum (sorghum; PREEMERGENCE, Rate 200 g/ha): 0
Plant response rating, Sorghum (sorghum; Rate 200 g/ha, POSTEMERGENCE): 7
Plant response rating, Rice (rice; POSTEMERGENCE, Rate 50 g/ha): 5
Plant response rating, Rice (rice; PREEMERGENCE, Rate 50 g/ha): 1
Plant response rating (0 to 10 scale), Rice (rice; PREEMERGENCE, Rate 200 g/ha): 3
Plant response rating, Rice (rice; Rate 200 g/ha, POSTEMERGENCE): 6
Plant response rating, Velvetleaf (velvetleaf; POSTEMERGENCE, Rate 50 g/ha): 10
Plant response rating, Velvetleaf (velvetleaf; PREEMERGENCE, Rate 50 g/ha): 9
Plant response rating (0 to 10 scale), Velvetleaf (velvetleaf; PREEMERGENCE, Rate 200 g/ha): 9
Plant response rating, Velvetleaf (velvetleaf; Rate 200 g/ha, POSTEMERGENCE): 10
Plant response rating, Wild oat (wild oat; POSTEMERGENCE, Rate 50 g/ha): 7
Plant response rating, Wild oat (wild oat; PREEMERGENCE, Rate 50 g/ha): 2
Plant response rating (0 to 10 scale), Wild oat (wild oat; PREEMERGENCE, Rate 200 g/ha): 8
Plant response rating, Wild oat (wild oat; Rate 200 g/ha, POSTEMERGENCE): 7
Plant response rating, Lambsquarter (lambsquarters; POSTEMERGENCE, Rate 50 g/ha): 10
Plant response rating, Lambsquarter (lambsquarters; PREEMERGENCE, Rate 50 g/ha): 10
Plant response rating (0 to 10 scale), Lambsquarter (lambsquarters; PREEMERGENCE, Rate 200 g/ha): 10
Plant response rating, Lambsquarter (lambsquarters; Rate 200 g/ha, POSTEMERGENCE): 10
Plant response rating, Nutsedge (purple nutsedge; POSTEMERGENCE, Rate 50 g/ha): 3
Plant response rating, Nutsedge (purple nutsedge; PREEMERGENCE, Rate 50 g/ha): 0
Plant response rating (0 to 10 scale), Nutsedge (purple nutsedge; PREEMERGENCE, Rate 200 g/ha): 0
Plant response rating, Nutsedge (purple nutsedge; Rate 200 g/ha, POSTEMERGENCE): 4
Plant response rating, Chickweed (chickweed; POSTEMERGENCE, Rate 50 g/ha): 5
Plant response rating, Chickweed (chickweed; PREEMERGENCE, Rate 50 g/ha): 1
Plant response rating (0 to 10 scale), Chickweed (chickweed; PREEMERGENCE, Rate 200 g/ha): 3
Plant response rating, Chickweed (chickweed; Rate 200 g/ha, POSTEMERGENCE): 9
Plant response rating, Cotton (cotton; POSTEMERGENCE, Rate 50 g/ha): 10
Plant response rating, Cotton (cotton; PREEMERGENCE, Rate 50 g/ha): 0
Plant response rating (0 to 10 scale), Cotton (cotton; PREEMERGENCE, Rate 200 g/ha): 4
Plant response rating, Cotton (cotton; Rate 200 g/ha, POSTEMERGENCE): 10
Plant response rating, Bedstraw (bedstraw; POSTEMERGENCE, Rate 50 g/ha): 10
Plant response rating, Bedstraw (bedstraw; PREEMERGENCE, Rate 50 g/ha): 5
Plant response rating (0 to 10 scale), Bedstraw (bedstraw; PREEMERGENCE, Rate 200 g/ha): 5
Plant response rating, Bedstraw (bedstraw; Rate 200 g/ha, POSTEMERGENCE): 10
Plant response rating, Soybean (soybean; PREEMERGENCE, Rate 50 g/ha): 0
Plant response rating (0 to 10 scale), Soybean (soybean; PREEMERGENCE, Rate 200 g/ha): 2
Plant response rating, Soybean (soybean; Rate 200 g/ha, POSTEMERGENCE): 8
Plant response rating, Giant foxtail (giant foxtail; POSTEMERGENCE, Rate 50 g/ha): 5
Plant response rating, Giant foxtail (giant foxtail; PREEMERGENCE, Rate 50 g/ha): 6
Plant response rating (0 to 10 scale), Giant foxtail (giant foxtail; PREEMERGENCE, Rate 200 g/ha): 10
Plant response rating, Giant foxtail (giant foxtail; Rate 200 g/ha, POSTEMERGENCE): 8
Plant response rating, Wheat (wheat; POSTEMERGENCE, Rate 50 g/ha): 6
Plant response rating, Wheat (wheat; PREEMERGENCE, Rate 50 g/ha): 0
Plant response rating (0 to 10 scale), Wheat (wheat; PREEMERGENCE, Rate 200 g/ha): 5
Plant response rating, Wheat (wheat; Rate 200 g/ha, POSTEMERGENCE): 5
Plant response rating, Wild buckwheat (wild buckwheat; POSTEMERGENCE, Rate 50 g/ha): 10
Plant response rating, Wild buckwheat (wild buckwheat; PREEMERGENCE, Rate 50 g/ha): 10
Plant response rating (0 to 10 scale), Wild buckwheat (wild buckwheat; PREEMERGENCE, Rate 200 g/ha): 10
Plant response rating, Wild buckwheat (wild buckwheat; Rate 200 g/ha, POSTEMERGENCE): 10
Plant response rating, Cocklebur (cocklebur; POSTEMERGENCE, Rate 50 g/ha): 10
Plant response rating, Cocklebur (cocklebur; PREEMERGENCE, Rate 50 g/ha): 0
Plant response rating (0 to 10 scale), Cocklebur (cocklebur; PREEMERGENCE, Rate 200 g/ha): 4
Plant response rating, Cocklebur (cocklebur; Rate 200 g/ha, POSTEMERGENCE): 10
Plant response rating, Crabgrass (crabgrass; POSTEMERGENCE, Rate 50 g/ha): 4
Plant response rating, Crabgrass (crabgrass; PREEMERGENCE, Rate 50 g/ha): 2
Plant response rating (0 to 10 scale), Crabgrass (crabgrass; PREEMERGENCE, Rate 200 g/ha): 2
Plant response rating, Crabgrass (crabgrass; Rate 200 g/ha, POSTEMERGENCE): 7
